Values after ≈ are worked out from the molar mass of the structure shown. Values belong to the compound of their own block, whether it stands above or below them.
Columns and labels:
Plasmodium falciparum [1] = test: Antimalarial activity against Plasmodium falciparum infected in A-positive human erythrocytes assessed as [3H]-hypoxanthine uptake after 24 hrs by liquid scintillation counter; type: functional, organism-based
[2] = Half life in CD1 mouse at 0.2 mg/kg, iv; type: ADME, organism-based; set-up: dose 0.2 mg/kg, route intravenous; conditions: in vivo
[3] = Solubility of the compound in PBS at pH 7.4; type: physicochemical
[4] = Oral bioavailability in CD1 mouse at 10 mg/kg; type: ADME, organism-based; conditions: in vivo
[5] = Dissociation constant, pKa of the compound; type: physicochemical
[6] = Volume of distribution in CD1 mouse at 0.2 mg/kg, iv; type: ADME, organism-based; set-up: dose 0.2 mg/kg, route intravenous; conditions: in vivo
[7] = Partition coefficient, log P of the compound; type: physicochemical; conditions: octanol/water
[8] = Half life in Beagle dog at 0.05 mg/kg, iv; type: ADME, organism-based, Canis lupus familiaris; set-up: dose 0.05 mg/kg, route intravenous; conditions: in vivo
[9] = Clearance in Beagle dog at 0.05 mg/kg, iv; type: ADME, organism-based, Canis lupus familiaris; set-up: dose 0.05 mg/kg, route intravenous; conditions: in vivo
[10] = Oral bioavailability in Beagle dog at 2 mg/kg; type: ADME, organism-based, Canis lupus familiaris; conditions: in vivo
Canis familiaris = test: Cmax in Beagle dog at 2 mg/kg, po; type: ADME, organism-based, Canis lupus familiaris; set-up: dose 2 mg/kg, route oral; conditions: in vivo
[11] = Volume of distribution in Beagle dog at 0.05 mg/kg, iv; type: ADME, organism-based, Canis lupus familiaris; set-up: dose 0.05 mg/kg, route intravenous; conditions: in vivo
Mus musculus = test: Cmax in CD1 mouse at 10 mg/kg, po; type: ADME, organism-based; set-up: dose 10 mg/kg, route oral; conditions: in vivo
[12] = Clearance in CD1 mouse at 0.2 mg/kg, iv; type: ADME, organism-based; set-up: dose 0.2 mg/kg, route intravenous; conditions: in vivo
[13] = Chromatographic hydrophobicity index of the compound at pH 2 by rapid gradient HPLC analysis; type: physicochemical
[14] = Solubility of the compound in fasted state simulated intestinal fluid at pH 6.8; type: physicochemical
[15] = Chromatographic hydrophobicity index of the compound at pH 7.4 by rapid gradient HPLC analysis; type: physicochemical
[16] = Chromatographic hydrophobicity index of the compound at pH 10.5 by rapid gradient HPLC analysis; type: physicochemical
[17] = Solubility of the compound in simulated gastric fluid at pH 1.2; type: physicochemical; conditions: simulated gi fluid
[18] = Solubility of the compound in fed state simulated intestinal fluid at pH 5.0; type: physicochemical
Plasmodium falciparum [19] = test: Antimalarial activity against Plasmodium falciparum in po dosed HM-IL2R gamma null mouse assessed as reduction in parasitemia administered once a day for 4 days; type: functional; conditions: 96 h

SMILES: Cc1[nH]c(CN2CCOCC2)c(-c2ccc(Oc3ccc(OC(F)(F)F)cc3)cc2)c(=O)c1Cl
IC50 (Plasmodium falciparum [1]): > 250 nM

SMILES: Cc1[nH]c(CO)c(Cl)c(=O)c1-c1ccc(Oc2cccc(C(F)(F)F)c2)cc1
IC50 (Plasmodium falciparum [1]): 120 nM

SMILES: Cc1[nH]c(C(=O)O)c(-c2ccc(Oc3ccc(OC(F)(F)F)cc3)cc2)c(=O)c1Cl
IC50 (Plasmodium falciparum [1]): > 250 nM

SMILES: Cc1[nH]c(CN(C)C)c(Cl)c(=O)c1-c1ccc(Oc2ccc(OC(F)(F)F)cc2)cc1
IC50 (Plasmodium falciparum [1]): > 250 nM

SMILES: Cc1[nH]c(CN2CCOCC2)c(Cl)c(=O)c1-c1ccc(Oc2ccc(OC(F)(F)F)cc2)cc1
IC50 (Plasmodium falciparum [1]): > 250 nM

SMILES: Cc1[nH]c(CO)c(-c2ccc(Oc3cccc(C(F)(F)F)c3)cc2)c(=O)c1Cl
IC50 (Plasmodium falciparum [1]): 3 nM

SMILES: Cc1[nH]c(C(=O)N(C)C)c(-c2ccc(Oc3ccc(OC(F)(F)F)cc3)cc2)c(=O)c1Cl
IC50 (Plasmodium falciparum [1]): > 250 nM

SMILES: Cc1[nH]c(CN(C)C)c(-c2ccc(Oc3ccc(OC(F)(F)F)cc3)cc2)c(=O)c1Cl
IC50 (Plasmodium falciparum [1]): > 250 nM

SMILES: Cc1[nH]c(CN2CCCC2)c(-c2ccc(Oc3ccc(OC(F)(F)F)cc3)cc2)c(=O)c1Cl
IC50 (Plasmodium falciparum [1]): > 250 nM

half-life [2]: 1450 min
solubility [3]: < 100 µg/mL
bioavailability [4]: 20%
pKa [5]: 10.1
Vd [6]: 1.2 L/kg
logP [7]: 4.8
half-life [8]: 5.96 days
clearance [9]: 0.2 mL/min/kg
bioavailability [10]: 4.4%
Cmax (Canis familiaris): 30 ng/mL
Vd [11]: 2.9 L/kg
Cmax (Mus musculus): 0.9 µg/mL
clearance [12]: 0.6 mL/min/kg
CHI [13]: 2.75
solubility [14]: 500 µg/mL (≈ 1220 µM)
CHI [15]: 2.79
CHI [16]: 2.77
solubility [17]: 287 µg/mL (≈ 700 µM)
solubility [18]: 700 µg/mL (≈ 1710 µM)
SMILES: Cc1[nH]c(C)c(-c2ccc(Oc3ccc(OC(F)(F)F)cc3)cc2)c(=O)c1Cl
IC50 (Plasmodium falciparum [1]): 7 nM

SMILES: Cc1[nH]c(CO)c(Cl)c(=O)c1-c1ccc(Oc2ccc(OC(F)(F)F)cc2)cc1
IC50 (Plasmodium falciparum [1]): 130 nM

half-life [2]: 228 min
solubility [3]: < 100 µg/mL
bioavailability [4]: 50%
pKa [5]: 9.73
Vd [6]: 1 L/kg
logP [7]: 4.4
half-life [8]: 1.75 days
clearance [9]: 0.8 mL/min/kg
bioavailability [10]: 16%
Cmax (Canis familiaris): 300 ng/mL
Vd [11]: 2.8 L/kg
Cmax (Mus musculus): 1.1 µg/mL
clearance [12]: 3 mL/min/kg
CHI [13]: 2.43
solubility [14]: 690 µg/mL (≈ 1620 µM)
CHI [15]: 2.42
CHI [16]: 2.2
solubility [17]: 372 µg/mL (≈ 874 µM)
solubility [18]: 2340 µg/mL (≈ 5500 µM)
SMILES: Cc1[nH]c(CO)c(-c2ccc(Oc3ccc(OC(F)(F)F)cc3)cc2)c(=O)c1Cl
ED50 (Plasmodium falciparum [19]): 0.6 mg/kg
IC50 (Plasmodium falciparum [1]): 2 nM

SMILES: Cc1[nH]c(C)c(-c2ccc(Oc3cccc(C(F)(F)F)c3)cc2)c(=O)c1Cl
IC50 (Plasmodium falciparum [1]): 3 nM

SMILES: Cc1[nH]c(CN2CCCC2)c(Cl)c(=O)c1-c1ccc(Oc2ccc(OC(F)(F)F)cc2)cc1
IC50 (Plasmodium falciparum [1]): > 250 nM

— ChEMBL document CHEMBL1821610 (Bioorg Med Chem Lett, 2011)
